Measured values reported in patent US9187471B2, “Pyrido [4,3-b] indole and pyrido [3,4-b] indole derivatives and methods of use” (Medivation Technologies, Inc., priority 2010, dated 2015).

Key:
[1] = target: T1, rat adrenergic α1A receptor (Rattus norvegicus, UniProt P43140); assay: Adrenergic α1A radioligand binding ([3H]Prazosin); conditions: read-out: Adrenergic (0.1 μM) a1A, percent inhibition of specific binding; compound at 0.1 μM; 0.25 nM [3H]Prazosin
T1 construct: rat adrenergic α1A receptor obtained from Wistar Rat submaxillary glands; from tissue; host or cells: Wistar rat submaxillary glands
T1 sequence (P43140 1-466): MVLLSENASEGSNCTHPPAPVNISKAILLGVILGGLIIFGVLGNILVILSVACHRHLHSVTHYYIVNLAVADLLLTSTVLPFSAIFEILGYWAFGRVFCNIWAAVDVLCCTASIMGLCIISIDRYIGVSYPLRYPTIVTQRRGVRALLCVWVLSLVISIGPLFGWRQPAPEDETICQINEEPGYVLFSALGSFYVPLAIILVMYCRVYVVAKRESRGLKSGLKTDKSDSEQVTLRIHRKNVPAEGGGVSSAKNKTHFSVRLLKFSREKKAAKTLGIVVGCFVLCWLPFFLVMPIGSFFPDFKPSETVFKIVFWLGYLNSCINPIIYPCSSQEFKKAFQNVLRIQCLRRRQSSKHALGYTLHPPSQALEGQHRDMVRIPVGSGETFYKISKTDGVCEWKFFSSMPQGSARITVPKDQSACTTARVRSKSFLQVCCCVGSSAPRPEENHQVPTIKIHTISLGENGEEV
Procedure: To evaluate in radioligand binding assays the activity of compounds of the invention, rat adrenergic α1A receptor obtained from Wistar Rat submaxillary glands (Michel, A. et al, Br. J. Pharmacol. 98:883, 1989) in a modified Tris-HCl buffer (50 mM Tris-HCl buffer, pH 7.4, 0.5 mM EDTA) was used. Compounds of the invention were incubated with 0.25 nM [^3H]Prazosin for 60 min at 25° C. Non-specific binding was estimated in the presence of 10 μM phentolamine Receptor proteins were filtered and washed, the filters were then counted to determine [^3H]Prazosin specifically bound. […] Compounds of the invention were tested in this biochemical assay and percent inhibition of specific binding was determined.

[2] = target: T2, human recombinant adrenergic α2C receptor (Homo sapiens, UniProt P18825); assay: Adrenergic α2C radioligand binding ([3H]MK-912); conditions: read-out: Adrenergic (0.1 μM) a2C, percent inhibition of specific binding; compound at 0.1 μM; 1 nM [3H]MK-912
T2 construct: expressed in transfected cells; host or cells: insect Sf9 cells
T2 sequence (P18825 1-462): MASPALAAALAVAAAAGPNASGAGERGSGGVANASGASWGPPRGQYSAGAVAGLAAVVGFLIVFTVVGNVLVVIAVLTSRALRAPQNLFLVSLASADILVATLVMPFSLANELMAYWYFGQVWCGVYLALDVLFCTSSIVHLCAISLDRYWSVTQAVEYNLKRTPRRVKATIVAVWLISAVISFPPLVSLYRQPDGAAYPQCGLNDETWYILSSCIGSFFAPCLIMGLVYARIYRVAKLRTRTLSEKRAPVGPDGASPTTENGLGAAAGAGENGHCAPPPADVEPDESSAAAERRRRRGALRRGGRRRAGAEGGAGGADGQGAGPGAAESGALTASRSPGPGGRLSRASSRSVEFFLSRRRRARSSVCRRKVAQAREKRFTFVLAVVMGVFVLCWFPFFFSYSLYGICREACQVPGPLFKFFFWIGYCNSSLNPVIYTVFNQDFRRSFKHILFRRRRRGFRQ
Procedure: To evaluate in radioligand binding assays the activity of compounds of the invention, human recombinant adrenergic α2C receptor expressed in insect Sf9 cells (Uhlen, S. et al, J. Pharmacol. Exp. Ther. 271:1558, 1994) in a modified Tris-HCl buffer (50 mM Tris-HCl, pH 7.4, 12.5 mM MgCl2, 2 mM EDTA) was used. Compounds of the invention were incubated with 1 nM [^3H]MK-912 for 60 min at 25° C. Non-specific binding was estimated in the presence of 10 μM WB-4101. Receptor proteins were filtered and washed, the filters were then counted to determine [^3H]MK-912 specifically bound. […] Compounds of the invention were tested in this biochemical assay and percent inhibition of specific binding was determined.

[3] = target: T3, human recombinant histamine H1 receptor (Homo sapiens, UniProt P35367); assay: Histamine H1 radioligand binding ([3H]Pyrilamine); conditions: read-out: Histamine H1 Binding (1 μM), percent inhibition of specific binding; compound at 1 μM; 1.2 nM [3H]Pyrilamine
T3 construct: expressed in transfected cells; host or cells: CHO-K1
Procedure, shortened: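 Results expressed as percent inhibition of specific [3H]pyrilamine binding, counted on filters after washing. Receptor source: CHO-K1 cells expressing recombinant human H1, in modified Tris-HCl buffer (50 mM, pH 7.4; 2 mM MgCl2, 100 mM NaCl, 250 mM sucrose). 1 μM pyrilamine defined non-specific binding.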

[4] = target: T4, human recombinant serotonin (5-Hydroxytryptamine) 5-HT6 receptor (Homo sapiens, UniProt P50406); assay: Serotonin 5-HT6 radioligand binding ([3H]LSD); conditions: compound at 0.1 μM; read-out: Inhibition of ligand binding, Serotonin 5-HT6 (percent inhibition of specific binding)
T4 construct: expressed in transfected cells; host or cells: HeLa
Source text: Receptor proteins were filtered and washed, the filters were then counted to determine [3H]LSD specifically bound.

[5] = target: T5, human recombinant serotonin (5-Hydroxytryptamine) 5-HT2C receptor (Homo sapiens, UniProt P28335); assay: Serotonin 5-HT2C radioligand binding ([3H]Mesulergine); conditions: compound at 0.1 μM; read-out: Inhibition of ligand binding, Serotonin 5-HT2C (percent inhibition of specific binding)
T5 construct: expressed in transfected cells; host or cells: CHO-K1
T5 sequence (P28335 33-458): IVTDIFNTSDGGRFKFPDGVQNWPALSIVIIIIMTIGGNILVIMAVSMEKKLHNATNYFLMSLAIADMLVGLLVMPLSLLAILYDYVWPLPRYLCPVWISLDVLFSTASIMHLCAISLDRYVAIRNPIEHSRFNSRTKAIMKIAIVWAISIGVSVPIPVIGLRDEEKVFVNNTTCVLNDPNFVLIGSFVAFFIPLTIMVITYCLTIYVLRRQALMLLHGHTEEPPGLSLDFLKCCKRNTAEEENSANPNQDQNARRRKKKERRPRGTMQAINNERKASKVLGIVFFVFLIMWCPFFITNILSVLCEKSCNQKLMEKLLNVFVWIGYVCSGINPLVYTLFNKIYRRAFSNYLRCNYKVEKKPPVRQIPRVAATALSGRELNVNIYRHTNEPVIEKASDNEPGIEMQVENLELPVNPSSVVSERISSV
Procedure: Compounds of the invention were incubated with 1 nM [^3H]Mesulergine for 60 min at 25° C. Non-specific binding was estimated in the presence of 1 μM Mianserin. Receptor proteins were filtered and washed, the filters were then counted to determine [^3H]Mesulergine specifically bound.

T4 sequence (P50406 whole entry): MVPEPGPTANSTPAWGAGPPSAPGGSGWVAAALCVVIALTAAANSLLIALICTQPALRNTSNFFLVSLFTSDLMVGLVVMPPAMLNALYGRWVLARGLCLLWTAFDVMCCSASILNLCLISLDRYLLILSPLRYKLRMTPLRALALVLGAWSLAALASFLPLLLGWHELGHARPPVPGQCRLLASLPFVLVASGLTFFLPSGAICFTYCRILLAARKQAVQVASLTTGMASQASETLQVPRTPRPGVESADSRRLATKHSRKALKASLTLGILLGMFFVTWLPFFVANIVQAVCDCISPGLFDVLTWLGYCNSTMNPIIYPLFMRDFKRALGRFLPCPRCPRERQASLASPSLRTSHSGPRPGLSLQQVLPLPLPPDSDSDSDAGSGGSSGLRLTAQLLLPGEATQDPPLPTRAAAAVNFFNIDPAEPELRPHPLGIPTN
T3 sequence (P35367 whole entry): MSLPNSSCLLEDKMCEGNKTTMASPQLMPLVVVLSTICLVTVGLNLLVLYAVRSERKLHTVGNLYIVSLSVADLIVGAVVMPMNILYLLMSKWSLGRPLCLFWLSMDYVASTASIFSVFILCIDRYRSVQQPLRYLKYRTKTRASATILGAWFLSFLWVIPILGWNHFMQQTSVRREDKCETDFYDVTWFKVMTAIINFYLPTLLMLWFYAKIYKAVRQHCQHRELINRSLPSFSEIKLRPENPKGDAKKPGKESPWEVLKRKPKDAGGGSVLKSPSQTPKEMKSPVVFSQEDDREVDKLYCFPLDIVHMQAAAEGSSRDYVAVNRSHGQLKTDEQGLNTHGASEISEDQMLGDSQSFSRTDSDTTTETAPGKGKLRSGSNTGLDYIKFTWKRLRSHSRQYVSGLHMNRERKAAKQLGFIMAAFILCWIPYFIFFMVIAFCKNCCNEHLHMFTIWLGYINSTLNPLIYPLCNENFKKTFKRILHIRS

Row | Structure (SMILES) | inhibition at 0.1 µM [1] [%] | inhibition at 0.1 µM [2] [%] | inhibition at 1 µM [3] [%] | inhibition at 0.1 µM [4] [%] | inhibition at 0.1 µM [5] [%]
1 | CC(=O)Nc1ccc(-c2cscc2-n2c3c(c4cc(C)ccc42)CN(C)CC3)cn1 [Compound 56] | 49 | 2 | 10 | 16 | 38
2 | Cc1ccc2c(c1)c1c(n2-c2cccc(-c3ccc(O)nc3)c2)CCN(C)C1 [Compound 52, 5-(3-(2,8-dimethyl-3,4-dihydro-1H-pyrido[4,3-b]indol-5(2H)-yl)phenyl)pyridin-2-ol] | -1 | 2 | 14 | 17 | 19
3 | CNC(=O)c1cccc(-c2cscc2-n2c3c(c4cc(C)ccc42)CN(C)CC3)c1 [Compound No. 154] | 28 | 3 | 20 | 7 | 67
4 | Cc1ccc2c(c1)c1c(n2-c2cscc2-c2ccc3c(ccn3C)c2)CCN(C)C1 [Compound 33] | 57 | 87 | -7 | 60 | 49
5 | Cc1ccc2c(c1)c1c(n2-c2cscc2-c2c(C)noc2C)CCN(C)C1 [Compound 62] | 9 | 33 | 27 | 28 | 56
6 | Cc1cc(C)c2c(c1)c1c(n2-c2cccc3ncccc23)CCN(C)C1 [Compound 47] | -1 | 11 | 42 | 18 | 32
7 | Cc1ccc2c(c1)c1c(n2-c2cscc2-c2ccc(C)s2)CCN(C)C1 [Compound No. 79] | 79 | 77 | 61 | 50 | 92
8 | Cc1ccc2c(c1)c1c(n2-c2cccc(-c3ccc(S(N)(=O)=O)cc3)c2)CCN(C)C1 [Compound No. 158, 3′-(2,8-dimethyl-3,4-dihydro-1H-pyrido[4,3-b]indol-5(2H)-yl)biphenyl-4-sulfonamide] | 4 | 0 | 1 | 14 | 47
9 | Cc1ccc2c(c1)c1c(n2-c2cccc(-c3cnc(N(C)C)nc3)c2)CCN(C)C1 [Compound 42, 5-(3-(2,8-dimethyl-3,4-dihydro-1H-pyrido[4,3-b]indol-5(2H)-yl)phenyl)-N,N-dimethylpyrimidin-2-amine] | 9 | -11 | 0 | 17 | 32
10 | Cc1ccc2c(c1)c1c(n2-c2ccc(-c3ccc(C)nc3)cn2)CCN(C)C1 [Compound No. 156, 2,8-dimethyl-5-(6′-methyl-3,3′-bipyridin-6-yl)-2,3,4,5-tetrahydro-1H-pyrido[4,3-b]indole] | 39 | -13 | 12 | -5 | 96
11 | Cc1ccc2c(c1)c1c(n2-c2cccc(-c3ccc(F)cc3)c2)CCN(C)C1 [Compound 61, 5-(4′-fluorobiphenyl-3-yl)-2,8-dimethyl-2,3,4,5-tetrahydro-1H-pyrido[4,3-b]indole] | -5 | 8 | 42 | 18 | 81
12 | CNC(=O)c1cccc(-c2ccc(-n3c4c(c5cc(C)ccc53)CN(C)CC4)nc2)c1 [Compound No. 143, 3-(6-(2,8-dimethyl-3,4-dihydro-1H-pyrido[4,3-b]indol-5(2H)-yl)pyridin-3-yl)-N-methylbenzamide] | 32 | 8 | 8 | -8 | 44
13 | Cc1ccc2c(c1)c1c(n2-c2cccc(-c3ccc4[nH]cnc4c3)c2)CCN(C)C1 [Compound 54, 5-(3-(1H-benzo[d]imidazol-5-yl)phenyl)-2,8-dimethyl-2,3,4,5-tetrahydro-1H-pyrido[4,3-b]indole] | -7 | 12 | 40 | 25 | 21
14 | Cc1csc(-c2cscc2-n2c3c(c4cc(C)ccc42)CN(C)CC3)c1 [Compound 50] | 65 | 90 | 54 | 36 | 92
15 | Cc1ccc2c(c1)c1c(n2-c2ccc(-c3ccncc3)cn2)CCN(C)C1 [Compound No. 132, 5-(3,4′-bipyridin-6-yl)-2,8-dimethyl-2,3,4,5-tetrahydro-1H-pyrido[4,3-b]indole] | 11 | -2 | 3 | 2 | 77
16 | Cc1ccc2c(c1)c1c(n2-c2cscc2-c2cc3ccccc3s2)CCN(C)C1 [Compound No. 151] | 64 | 52 | 11 | 28 | 47
17 | Cc1ccc2c(c1)c1c(n2-c2cccc(-c3sccc3C)c2)CCN(C)C1 [Compound 43, 2,8-dimethyl-5-(3-(3-methylthiophen-2-yl)phenyl)-2,3,4,5-tetrahydro-1H-pyrido[4,3-b]indole] | 13 | -16 | 26 | 28 | 8
18 | Cc1ccc2c(c1)c1c(n2-c2cscc2-c2ccc(F)nc2)CCN(C)C1 [Compound 35] | 78 | 47 | 3 | 21 | 74
